From US7749730B2, “High throughput screening assay for the TRPM5 ion channel” (Redpoint Bio Corporation, priority 2005, dated 2010)

What was measured:
Assay type in all cases: cell-based
TRPM5 [1] = target: T1, TRPM5 (Homo sapiens, UniProt Q9NZQ8); experiment: Membrane potential assay in transiently TRPM5-transfected HEK 293 cells (FLEXstation); set-up: the full length hTRPM5 was amplified by PCR using GC Melt; expressed in transfected cells; host or cells: HEK 293 (ATCC), transient transfection with Lipofectamine 2000; conditions: for TRPM5 response to agonist (relative fluorescence): within the first 30 seconds of agonist addition, FMP dye
T1 sequence (Q9NZQ8 1-1165): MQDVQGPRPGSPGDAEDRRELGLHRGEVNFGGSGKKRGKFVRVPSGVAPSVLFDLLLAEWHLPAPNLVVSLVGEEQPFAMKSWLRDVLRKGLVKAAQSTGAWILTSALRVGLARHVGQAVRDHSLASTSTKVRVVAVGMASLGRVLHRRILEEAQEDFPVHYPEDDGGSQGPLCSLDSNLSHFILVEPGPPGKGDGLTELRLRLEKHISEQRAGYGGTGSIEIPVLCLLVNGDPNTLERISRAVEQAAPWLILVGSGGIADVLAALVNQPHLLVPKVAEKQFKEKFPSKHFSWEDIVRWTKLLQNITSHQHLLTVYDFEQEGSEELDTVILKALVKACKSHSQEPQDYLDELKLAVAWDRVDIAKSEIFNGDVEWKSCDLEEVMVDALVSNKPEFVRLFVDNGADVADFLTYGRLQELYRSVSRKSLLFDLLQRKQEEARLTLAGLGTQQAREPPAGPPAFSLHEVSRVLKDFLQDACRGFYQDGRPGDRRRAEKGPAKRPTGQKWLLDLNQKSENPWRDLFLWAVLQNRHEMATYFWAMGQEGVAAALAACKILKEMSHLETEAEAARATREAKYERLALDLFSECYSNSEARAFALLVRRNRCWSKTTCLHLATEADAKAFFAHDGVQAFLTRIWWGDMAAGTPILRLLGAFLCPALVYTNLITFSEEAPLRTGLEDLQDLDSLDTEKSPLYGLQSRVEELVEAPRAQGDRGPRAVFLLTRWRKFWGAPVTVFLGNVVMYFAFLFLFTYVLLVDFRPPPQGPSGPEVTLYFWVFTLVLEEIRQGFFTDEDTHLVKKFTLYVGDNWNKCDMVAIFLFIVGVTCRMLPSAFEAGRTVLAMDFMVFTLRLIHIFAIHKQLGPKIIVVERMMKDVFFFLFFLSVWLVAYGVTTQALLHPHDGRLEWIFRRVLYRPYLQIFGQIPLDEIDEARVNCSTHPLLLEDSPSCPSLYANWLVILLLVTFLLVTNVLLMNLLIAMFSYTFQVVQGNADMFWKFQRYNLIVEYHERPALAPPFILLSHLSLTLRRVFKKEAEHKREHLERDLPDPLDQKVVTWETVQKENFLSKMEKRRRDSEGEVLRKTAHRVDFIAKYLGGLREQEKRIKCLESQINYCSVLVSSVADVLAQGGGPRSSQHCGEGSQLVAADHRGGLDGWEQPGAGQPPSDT
Experimental: As described in greater detail below, HEK 293 cells, transiently transfected with a plasmid bearing the human TRPM5 gene, were used to develop the high throughput screening assay. Indirect measurement of the changes in Na^+ ions within the HEK 293 cells were made using a FMP dye and stimulation of the cells using calcium activating agents.
1.0×10^6 HEK 293 cells (ATCC) were plated in each well of a 6-well tissue culture dish overnight. The following day, cells were transfected with 4 μg of a pcDNA3.2 vector containing TRPM5 cDNA and 8 μl of Lipofectamine 2000 (Invitrogen), according to the manufacturer's protocol, and incubated overnight. The following day, transfected cells were trypsinized and seeded into 96-well black, clear bottom, poly-D-lysine plates (Corning) at a density of 70,000 cells/well in a 100 μl volume and incubated in a 37° C./5% CO2 incubator overnight.
Once the expression of TRPM5 was confirmed in the HEK cells, 100 μl of the Blue or Red FMP dye (Molecular Devices) was added to each well of plates seeded with the transiently transfected cells. The plate was then incubated in a 37° C./5% CO2 incubator for 1 hour. The plate was read in a FLEXStation microplate reader (Molecular Devices) with an excitation of 530 nm and an emission of 565 nm. The fluorescence was monitored for 3 minutes upon exposure of the cells to a calcium activating agent (carbachol, thrombin peptide or ATP).

TRPM5 [2] = target: T1, TRPM5; experiment: TRPM5 membrane potential dye assay (FLIPR), cells stimulated with ATP; set-up: the full length hTRPM5 was amplified by PCR using GC Melt; expressed in transfected cells; conditions: ATP stimulus
Experimental: TRPM5 stably expressed in HEK cells was analyzed for its ability to respond to different concentrations of several GPCR agonists. The assay was performed on a FLIPR® using the excitation 510-545 nm and emission 565-625 nm filter sets. Assay plates containing stably expressing HEK cells were loaded with 1× Membrane Potential Assay Dye Red (Molecular Devices) for one hour in a 37° C. and 5% CO2 incubator. The plates were then removed from the incubator and equilibrated to room temperature for 15 minutes before reading on the FLIPR®. The plates were read on the FLIPR® for a total of 3 minutes. Baseline fluorescence was obtained on the FLIPR® for 10 seconds followed by addition of each agonist by the FLIPR® and read for an additional 2 minutes and 50 seconds. […] The values on the graph represent the difference in the maximum minus the minimum fluorescence upon agonist addition. Individual clones are represented by clone number, while the pool of clones represents the sum of all cells that were resistant to selection. In all cases, clone 1 gave the strongest response to all 3 agonists (ATP, carbachol, and thrombin peptide, FIGS. 5A-5C, respectively). Clone 5 and pooled clones generated a lower response in comparison to clone 1. However, both the clone 5 and pool responses were a minimum 3-fold higher than fluorescence in non-transfected cells.
Specificity of potential activating compounds may be identified using suboptimal concentrations of agents that increase intracellular calcium levels. In this type of assay, rather than using a high concentration of, for example carbachol, a reduced concentration is added to TRPM5-expressing cells with or without an additional test compound. Enhancers of TRPM5 activity are those test compounds that increase the fluorescent intensity in reduced carbachol treated cells, to the level seen in cells treated to a high dose.
A carbachol dose response curve was generated for the TRPM5 expressing cells so that the suboptimal concentration range could be determined. […]

KCl response = experiment: KCl counterscreen (membrane potential dye, 20 mM KCl stimulus); conditions: TRPM5-expressing cells
Experimental: KCl activates a number of ion channels, but not TRPM5. Therefore, KCl can be used as a counterscreen to identify modulating compounds specific for TRPM5.
(§1) The ideal blocker would block TRPM5 but not other channels. The TRPM5 assay is conducted as described in Example 3, utilizing a membrane potential dye. A test compound is added, and the cells are then stimulated with ATP to trigger the channel, leading to a dye response. The process is shown schematically in FIG. 7. The KCl counterscreen is performed as described in Example 3, with identical cells, pretreated with the same compound, but the stimulus was 20 mM KCl, not ATP. KCl stimulated and unstimulated responses are used as controls. […] An additional specificity assay utilizes a Ca++ flux dye (Calcium 3 Dye, Part No. R8091) to determine whether or not the compound interferes with agonist-induced Ca++ flux response.

[3] = system: agonist-induced Ca++ flux response; experiment: Ca++ flux assay (Calcium 3 Dye)
Experimental: as §1

| Compound | TRPM5 response to agonist (relative fluorescence) (TRPM5 [1]) | inhibition of the TRPM5 response (TRPM5 [2]) | effect on KCl response (KCl response) | effect on Ca++ flux response [3] | fluorescence over background (TRPM5 [1]; versus mock treated cells) |
| --- | --- | --- | --- | --- | --- |
| Nc1ncnc2c1ncn2[C@@H]1O[C@H](COP(=O)(O)OP(=O)(O)OP(=O)(O)O)[C@@H](O)[C@H]1O [ATP, adenosine triphosphate] | strong spike in relative fluorescence |  |  |  |  |
| NC1C(=O)/C(=C\c2cc([N+](=O)[O-])cc([N+](=O)[O-])c2O)SC1=S (centres unmarked) [Compound F001344,A3] |  | inhibits TRPM5 | inhibits TRPM5, but also the KCl responses |  |  |
| O=c1[nH]c(SCc2ccccc2)nc(O)c1C(c1ccccc1)c1ccccc1 [Compound F0013488,C13] |  | inhibits TRPM5 |  | activates the Ca++ flux response |  |
| C[N+](C)(C)CCOC(N)=O [carbachol] | strong spike in relative fluorescence |  |  |  |  |
| C=CCOc1ccc(/C=N/NC(=O)CSCc2cccc(Br)c2)cc1OC [compound 1] |  | dose responsive inhibition of the TRPM5 response | does not alter KCl or Ca++ responses | does not alter KCl or Ca++ responses |  |
| thrombin | strong spike in relative fluorescence |  |  |  | greater than 4 fold |
